From paper PMC11844072, “Novel 5,6-dichlorobenzimidazole derivatives as dual BRAFWT and BRAFV600E inhibitors: design, synthesis, anti-cancer activity and molecular dynamics simulations” (BMC Chemistry, 2025)

Assays:
Experiment in all cases: NCI 5-dose assay
Type in all cases: cell-based
[1] = test system: MOLT-4; settings: Homo sapiens; MOLT-4, Leukemia
Method: (§1) The synthesized dichlorobenzimidazoles 10a–p were assayed for their influence on divers cancer cell lines according to the method presented in the Additional file A.
(§2) 5. Screening of cytotoxic activity against a panel of sixty human tumor cell lines
(§3) The selected compounds by NCI were evaluated for their anticancer activity in a two-stage process. First, these compounds were screened against the full NCI 60 cell lines panel at a single high dose of 10 µM. Then, the output from the single dose screen is reported as a mean graph. […]
(§4) at five different minimal concentrations.
(§5) Assay protocol. The human tumor cell lines of the cancer screening panel are grown in RPMI 1640 medium containing 5% fetal bovine serum and 2 mM L-glutamine. For a typical screening experiment, cells are inoculated into 96 well microtiter plates in 100 µL at plating densities ranging from 5000 to 40,000 cells/well depending on the doubling time of individual cell lines. After cell inoculation, the microtiter plates are incubated at 37 °C, 5% CO 2, 95% air and 100% relative humidity for 24 h prior to addition of the experimental drugs.
(§6) After 24 h, two plates of each cell line are fixed in situ with TCA, to represent a measurement of the cell population for each cell line at the time of drug addition (Tz). The experimental drugs are solubilized in dimethyl sulfoxide at 400-fold the desired final maximum test concentration and stored frozen prior to use. At the time of drug addition, an aliquot of frozen concentrate is thawed and diluted to twice the desired final maximum test concentration with complete medium containing 50 µg/mL gentamicin. Additional four, 10-fold or ½ log serial dilutions are made to provide a total of five drug concentrations plus control.
(§7) Aliquots of […] of these different drug dilutions are added to the appropriate microtiter wells already containing […] of medium, resulting in the required final drug concentrations.
(§8) Following drug addition, the plates are incubated for an additional 48 h at 37 °C, 5% CO 2, 95% air, and 100% relative humidity. For adherent cells, the assay is terminated by the addition of cold TCA.
(§9) Cells are fixed in situ by the gentle addition of 50 µL of cold 50% (w/v) TCA (final concentration, 10% TCA) and incubated for 60 min at 4 °C. The supernatant is discarded, and the plates are washed five times with tap water and air dried. Sulforhodamine B (SRB) solution ([…]) at 0.4% (w/v) in 1% acetic acid is added to each well, and plates are incubated for 10 min at room temperature. After staining, unbound dye is removed by washing five times with 1% acetic acid and the plates are air dried. Bound stain is subsequently solubilized with 10 mM trizma base, and the absorbance is read on an automated plate reader at a wavelength of 515 nm. For suspension cells, the methodology is […]
(§10) the same except that the assay is terminated by fixing settled cells at the bottom of the wells by gently adding 50 µl of 80% TCA (final concentration, 16% TCA). Using the seven absorbance measurements [time zero, (Tz), control growth, (C), and test growth in the presence of drug at the five concentration levels (Ti)], the percentage growth is calculated at each of the drug concentrations […]
(§11) Percentage growth inhibition is calculated as: [(Ti Tz)/(C–Tz)] x 100 for concentrations for which Ti>/=Tz and [(Ti-Tz)/Tz] x 100 for concentrations for which Ti < Tz.
(§12) Three dose response parameters are calculated for each experimental agent. Growth […]
(§13) concentration resulting in a 50% reduction in the net protein increase (as measured by SRB staining) in control cells during the drug incubation. The drug concentration resulting in total growth inhibition (TGI) is calculated from Ti = Tz. […]
(§14) reduction in the measured protein at the end of the drug treatment as compared to that at the beginning) indicating a net loss of cells following treatment is calculated from [(Ti–Tz)/Tz] x 100 =
(§15) _50. Values are calculated for each of these three parameters if the level of activity is reached; […]

[2] = test system: MDA-MB-468; settings: Homo sapiens; MDA-MB-468, Breast cancer
Method: as §1, §2, §3, §4, §5, §6, §7, §8, §9, §10, §11, §12, §13, §14, §15

[3] = test system: OVCAR-5; settings: Homo sapiens; OVCAR-5, Ovarian cancer
Method: as §1, §2, §3, §4, §5, §6, §7, §8, §9, §10, §11, §12, §13, §14, §15

[4] = test system: UACC-257; settings: Homo sapiens; UACC-257, Melanoma
Method: as §1, §2, §3, §4, §5, §6, §7, §8, §9, §10, §11, §12, §13, §14, §15

[5] = test system: BT-549; settings: Homo sapiens; BT-549, Breast cancer
Method: as §1, §2, §3, §4, §5, §6, §7, §8, §9, §10, §11, §12, §13, §14, §15

[6] = test system: SNB-75; settings: Homo sapiens; SNB-75, CNS cancer
Method: as §1, §2, §3, §4, §5, §6, §7, §8, §9, §10, §11, §12, §13, §14, §15

[7] = test system: ACHN; settings: Homo sapiens, Renal cancer
Method: as §1, §2, §3, §4, §5, §6, §7, §8, §9, §10, §11, §12, §13, §14, §15

[8] = test system: HOP-62; settings: Homo sapiens; HOP-62, Non-small cell lung cancer
Method: as §1, §2, §3, §4, §5, §6, §7, §8, §9, §10, §11, §12, §13, §14, §15

[9] = test system: OVCAR-3; settings: Homo sapiens; OVCAR-3, Ovarian cancer
Method: as §1, §2, §3, §4, §5, §6, §7, §8, §9, §10, §11, §12, §13, §14, §15

[10] = test system: HS 578T; settings: Homo sapiens, Breast cancer
Method: as §1, §2, §3, §4, §5, §6, §7, §8, §9, §10, §11, §12, §13, §14, §15

[11] = test system: OVCAR-4; settings: Homo sapiens; OVCAR-4, Ovarian cancer
Method: as §1, §2, §3, §4, §5, §6, §7, §8, §9, §10, §11, §12, §13, §14, §15

[12] = test system: SW-620; settings: Homo sapiens; SW-620, Colon cancer
Method: as §1, §2, §3, §4, §5, §6, §7, §8, §9, §10, §11, §12, §13, §14, §15

[13] = test system: SNB-19; settings: Homo sapiens; SNB-19, CNS cancer
Method: as §1, §2, §3, §4, §5, §6, §7, §8, §9, §10, §11, §12, §13, §14, §15

[14] = test system: U251; settings: Homo sapiens, U-251; U251, CNS cancer
Method: as §1, §2, §3, §4, §5, §6, §7, §8, §9, §10, §11, §12, §13, §14, §15

[15] = test system: SK-MEL-28; settings: Homo sapiens; SK-MEL-28, Melanoma
Method: as §1, §2, §3, §4, §5, §6, §7, §8, §9, §10, §11, §12, §13, §14, §15

[16] = test system: HCC-2998; settings: Homo sapiens; HCC-2998, Colon cancer
Method: as §1, §2, §3, §4, §5, §6, §7, §8, §9, §10, §11, §12, §13, §14, §15

[17] = test system: TK-10; settings: Homo sapiens; TK-10, Renal cancer
Method: as §1, §2, §3, §4, §5, §6, §7, §8, §9, §10, §11, §12, §13, §14, §15

[18] = test system: RXF 393; settings: Homo sapiens; RXF 393, Renal cancer
Method: as §1, §2, §3, §4, §5, §6, §7, §8, §9, §10, §11, §12, §13, §14, §15

[19] = test system: HCT-116; settings: Homo sapiens; HCT-116, Colon cancer
Method: as §1, §2, §3, §4, §5, §6, §7, §8, §9, §10, §11, §12, §13, §14, §15

[20] = test system: SK-MEL-2; settings: Homo sapiens; SK-MEL-2, Melanoma
Method: as §1, §2, §3, §4, §5, §6, §7, §8, §9, §10, §11, §12, §13, §14, §15

[21] = test system: UO-31; settings: Homo sapiens; UO-31, Renal cancer
Method: as §1, §2, §3, §4, §5, §6, §7, §8, §9, §10, §11, §12, §13, §14, §15

[22] = test system: NCI-H23; settings: Homo sapiens; NCI-H23, Non-small cell lung cancer
Method: as §1, §2, §3, §4, §5, §6, §7, §8, §9, §10, §11, §12, §13, §14, §15

Which results are given for COC(=O)COc1ccc(C=NNC(=O)Cn2c(-c3ccc(OC)cc3)nc3cc(Cl)c(Cl)cc32)cc1 [Compound 10h, Methyl-2-(4-((2-(2-(5,6-dichloro-2-(4-methoxyphenyl)-1H-benzo[d]imidazol-1-yl)acetyl)hydrazono)methyl)phenoxy)acetate]?
GI50 [1]: 5.36 µM; GI50 [2]: 1.68 µM; GI50 [3]: 34.3 µM; GI50 [4]: 12.7 µM; GI50 [5]: 25.6 µM; GI50 [6]: 2.14 µM; GI50 [7]: 7.84 µM; GI50 [8]: 17.3 µM; GI50 [9]: 10.6 µM; GI50 [10]: 10.1 µM; GI50 [11]: 17.2 µM; GI50 [12]: 22.2 µM; GI50 [13]: > 82.5 µM; GI50 [14]: 14.1 µM; GI50 [15]: 11.7 µM; GI50 [16]: 13.1 µM; GI50 [17]: 13.2 µM; GI50 [18]: 2.85 µM; GI50 [19]: 68 µM; GI50 [20]: 10.5 µM; GI50 [21]: 9.74 µM; GI50 [22]: > 82.5 µM

Which results are given for COC(=O)COc1ccc(C=NNC(=O)Cn2c(-c3ccc(OC)cc3)nc3cc(Cl)c(Cl)cc32)cc1OC [Compound 10p, Methyl-2-(4-((2-(2-(5,6-dichloro-2-(4-methoxyphenyl)-1H-benzo[d]imidazol-1-yl)acetyl)hydrazono)methyl)-2-methoxyphenoxy)acetate]?
GI50 [1]: > 72.5 µM; GI50 [2]: 1.48 µM; GI50 [3]: 24 µM; GI50 [4]: 14.7 µM; GI50 [5]: > 72.5 µM; GI50 [6]: 1.73 µM; GI50 [7]: 5.42 µM; GI50 [8]: > 72.5 µM; GI50 [9]: > 72.5 µM; GI50 [10]: 4.34 µM; GI50 [11]: 23 µM; GI50 [12]: > 72.5 µM; GI50 [13]: > 72.5 µM; GI50 [14]: > 72.5 µM; GI50 [15]: > 72.5 µM; GI50 [16]: 11.7 µM; GI50 [17]: 12.6 µM; GI50 [18]: 1.43 µM; GI50 [19]: > 72.5 µM; GI50 [20]: 10 µM; GI50 [21]: 8.11 µM; GI50 [22]: > 72.5 µM

For COC(=O)COc1cc(C=NNC(=O)Cn2c(-c3ccc(OC)cc3)nc3cc(Cl)c(Cl)cc32)ccc1OC [Compound 10o, Methyl-2-(5-((2-(2-(5,6-dichloro-2-(4-methoxyphenyl)-1H-benzo[d]imidazol-1-yl)acetyl)hydrazono)methyl)-2-methoxyphenoxy)acetate], which GI50 [1] is on record?
Its GI50 is 14.2 µM.

What about the GI50 [2] of the same compound?
The GI50 was 4.4 µM.

What about the GI50 [3] of the same compound?
The GI50 was > 100 µM.

What about the GI50 [4] of the same compound?
Its GI50 is 38.7 µM.

And the GI50 [5]?
The GI50 was > 100 µM.

What about the GI50 [6] of the same compound?
The GI50 was 14.4 µM.

And the GI50 [7]?
The GI50 was 14.2 µM.

And the GI50 [8]?
The GI50 was > 100 µM.

What about the GI50 [9] of the same compound?
The GI50 was > 100 µM.

And the GI50 [10]?
Its GI50 is 2.68 µM.

And the GI50 [11]?
The GI50 was 20.5 µM.

What about the GI50 [12] of the same compound?
Its GI50 is > 100 µM.

What about the GI50 [13] of the same compound?
The GI50 was > 100 µM.

What about the GI50 [14] of the same compound?
Its GI50 is > 100 µM.

And the GI50 [15]?
Its GI50 is > 100 µM.

What about the GI50 [16] of the same compound?
Its GI50 is 13.4 µM.

What about the GI50 [17] of the same compound?
Its GI50 is 18.3 µM.

And the GI50 [18]?
Its GI50 is 11 µM.

And the GI50 [19]?
Its GI50 is > 100 µM.

And the GI50 [20]?
Its GI50 is 21.6 µM.

And the GI50 [21]?
Its GI50 is 1.82 µM.

And the GI50 [22]?
The GI50 was > 100 µM.
